The values below are quoted from earlier work in patent US11737994B2, “Topical compositions for pain relief, manufacture and use” (priority 2014, dated 2023).

The conditions of this data set: in words.

Regarding `CCCCCCCCC(=O)NCc1ccc(O)c(OC)c1` [Nonivamide, vanillylamide of n-nonanoic acid], the Heat stability result was “more heat-stable than capsaicin”.
